Experimental data published in patent publication US8217000B2, “Method for elevating prolactin in mammals” (Cara Therapeutics, Inc., priority 2006, dated 2012).
Where a name gives a salt, the structure may show the parent alone. Read-outs that look alike come from different tables or passages of the source. Non-standard residues stand in square brackets, D forms with d. Residues, ends and D or L forms follow the SMILES beside them. *: point of attachment. NH(4-picolyl) = c1cc(CN*)ccn1; dNle = CCCC[C@@H](N)C(=O)O

What was measured:
[1] = Urinary excretion of CR665 after single IV infusion in human subjects; assay type: in vivo; details: for CL renal / dose excreted: human; for CL renal: urine and plasma, read-out: CLR 0-24 h; for dose excreted / Ae0-24 h: urine; for dose excreted: iv
Procedure: The lower limit of quantification was 1 ng/mL.
Urine was collected into standard weight polyethylene containers over the following time intervals: Pre dose (−24 to 0), 0 to 4, 4 to 8, 8 to 12, 12 to 24 and 24 to 48 hours after the start of the infusion. During each collection period, the containers were stored in a refrigerator at 2 to 8° C. The weight (g) of each collection was recorded prior to removal of two sub samples (each approximately 4 mL) into suitably labeled polypropylene containers, which were stored within 2 hours of collection, at approximately −20° C. Additional aliquots (1×100 mL per collection period) were stored for possible future analyses. Any remaining urine from post dose collection intervals was pooled with the rest of the urine collected during the 0 to 24 hour collection period, for analysis of creatinine clearance. A nominal value for specific gravity of 1.018 was used to calculate urine volume.

[2] = Safety and tolerability of ascending single IV doses in human subjects; assay type: in vivo
Excerpt: In each group, subjects received CR665 or placebo.
The condition of each subject was monitored throughout the study.
Subjects were also encouraged to spontaneously report adverse events occurring at any other time during the study. Any adverse events and remedial action required were to be recorded for each subject. The nature, time of onset, duration and severity were documented, together with the Project Physician's opinion of the relationship to drug administration.
The condition of the dosing cannula site for each subject was monitored for erythema, pruritus and swelling at the following times: Pre dose, 0.5, 1, 2 and 24 hours after the start of the infusion. Subjects were also encouraged to spontaneously report adverse events relating to the infusion site at any other time during the study. Any adverse events and observations relating to the infusion site and remedial action required were to be recorded for each subject. The nature, time of onset, duration, and severity were to be documented, together with the Project Physician's opinion of the relationship to drug administration.
Supine and standing blood pressure, supine pulse rate and oral body temperature were measured in duplicate at the following times: Day 1; Pre dose, 15 minutes (Part B only), 30 minutes, 55 minutes, 1.5, 2, 2.5, 3, 4, 8, 12, 24 and 48 hours after the start of the infusion (up to 24 hours only for Groups A1 to A4); and at Follow up visit. Supine vital signs only were measured during the infusion period. Pre dose blood pressure and pulse rate were measured in triplicate at approximately 2 minute intervals. The median value was used as the baseline value in the data analysis. All subsequent measurements were performed singly, but repeated in duplicate if outside the relevant clinical reference ranges. If repeated, the median of the three values were used in the data analysis. Blood pressure and pulse rate were measured using automated Critikon Dinamap™ PRO 400 monitors. Subjects were required to be supine for at least 5 minutes before blood pressure and pulse rate measurements. Standing blood pressure and pulse rate were then measured singly after the subject had been sitting for approximately 1 minute and then standing for approximately 2 minutes. Oral body temperature was measured singly using an Omron digital thermometer. To assess drug effects on cardiovascular function, a 12 lead resting ECG with a 10 second rhythm strip was recorded on a Marquette MAC5000 ECG machine at the following times, after the subject has been supine for at least 5 minutes: Day 1; Pre dose, 50 minutes, 2, 4, 8, 24 and 48 hours after the start of the infusion (up to 24 hours only for Groups A1 to A4); and at the follow up visit. The ECG machine computed the PR, QT and QTc intervals, QRS duration, and heart rate. The QT interval was corrected for heart rate (QTc) using Bazett's formula. For continuous ECG measurements, continuous cardiac Holter monitoring of each subject, using Reynolds Tracker II Holter monitors, was performed from 1 hour prior to until 4 hours after the start of the infusion. Blood and urine samples were collected, after at least a 6 hour fast, for clinical laboratory evaluations at the following times during the study: Pre dose and 24 hours after the start of the infusion; and at the follow up visit.
After collection of urine samples, following removal of the aliquots for drug assay and/or urinalysis, urine was pooled over the following time intervals: 24 to 0 hours and 0 to 24 hours after the start of the infusion. A 10 mL aliquot was removed from the each pooled collection for determination of urinary creatinine.
An assessment of fluid balance (made by comparison of volume of fluid consumed and volume of fluid excreted) was made over the following periods: 24 to 0 hours and 0 to 24 hours after the start of the infusion. During these periods, the volume of fluid consumed and the volume of urine excreted was recorded. […]

CCCC[C@@H](NC(=O)[C@@H](Cc1ccccc1)NC(=O)[C@H](N)Cc1ccccc1)C(=O)N[C@H](CCCNC(=N)N)C(=O)NCc1ccncc1 [CR665, D-phenylalanyl-D-phenylalanyl-D-norleucyl-N-(4-pyridinylmethyl)-D-argininamide, acetate salt] (H-[dF][dF][dNle][dR]-{NH(4-picolyl)})
CL renal ([1]; female, females, 0.06 mg/kg, 5-minute IV infusion, geometric mean): 20.9 mL/min | CL renal ([1]; female, females, 0.24 mg/kg, 1 hour IV infusion, geometric mean): 16.8 mL/min | dose excreted ([1]; female, 0.06 mg/kg, females, 0.06 mg/kg, 5-minute IV infusion, geometric mean, read-out: fe0-24 h): 3.83% | dose excreted ([1]; female, 0.06 mg/kg, females, 5-minute infusion, read-out: Fraction of unchanged drug excreted in the urine): 3.8% | dose excreted ([1]; female, 0.06 mg/kg, females, 5-minute infusion, read-out: fe0-24 h, geometric least squares mean): 3.83% | dose excreted ([1]; female, 0.24 mg/kg, females, 0.24 mg/kg, 1 hour IV infusion, geometric mean, read-out: fe0-24 h): 3.02% | dose excreted ([1]; female, 0.24 mg/kg, females, 1-hour infusion, read-out: fe0-24 h, geometric least squares mean): 2.7% | fe0-24 h, ratio of geometric least squares means 5-minute:1-hour ([1]; females): 1.42 | Ae0-24 h ([1]; females, 0.06 mg/kg, 5-minute IV infusion, geometric mean): 153 µg | Ae0-24 h ([1]; females, 0.24 mg/kg, 1 hour IV infusion, geometric mean): 446 µg | CL renal ([1]; male, males, 0.03 mg/kg, 5-minute IV infusion, geometric mean): 17.1 mL/min | CL renal ([1]; male, males, 0.06 mg/kg, 5-minute IV infusion, geometric mean): 18.4 mL/min | CL renal ([1]; male, males, 0.09 mg/kg, 5-minute IV infusion, geometric mean): 20.5 mL/min | CL renal ([1]; male, males, 0.24 mg/kg, 1 hour IV infusion, geometric mean): 22 mL/min | dose excreted ([1]; male, 0.03 mg/kg, males, 0.03 mg/kg, 5-minute IV infusion, geometric mean, read-out: fe0-24 h): 3.6% | dose excreted ([1]; male, 0.06 mg/kg, males, 0.06 mg/kg, 5-minute IV infusion, geometric mean, read-out: fe0-24 h): 3.33% | dose excreted ([1]; male, 0.09 mg/kg, males, 0.09 mg/kg, 5-minute IV infusion, geometric mean, read-out: fe0-24 h): 3.56% | dose excreted ([1]; male, 0.24 mg/kg, males, 0.24 mg/kg, 1 hour IV infusion, geometric mean, read-out: fe0-24 h): 3.5% | dose excreted ([1]; male, males, 1-hour infusion, Parts A & B, read-out: fe0-24 h, geometric least squares mean): 3.46% | dose excreted ([1]; male, males, 5-minute infusion, Parts A & B, read-out: fe0-24 h, geometric least squares mean): 3.48% | dose excreted ([1]; male, males, all dose levels, 5-minute infusion, up to 24 hours post-dose, read-out: Fraction of the dose excreted in the urine as unchanged drug): ~3.5% | fe0-24 h, ratio of geometric least squares means 5-minute:1-hour ([1]; males): 1.01 | Ae0-24 h ([1]; males, 0.03 mg/kg, 5-minute IV infusion, geometric mean): 70.0 µg | Ae0-24 h ([1]; males, 0.06 mg/kg, 5-minute IV infusion, geometric mean): 157 µg | Ae0-24 h ([1]; males, 0.09 mg/kg, 5-minute IV infusion, geometric mean): 262 µg | Ae0-24 h ([1]; males, 0.24 mg/kg, 1 hour IV infusion, geometric mean): 631 µg | Fluid balance (urine excreted-fluid consumed) ([2]; 0 to 24 hour after start of infusion): no apparent treatment or dose related trends | 12-lead ECG evaluations ([2]; Parts A and B): no treatment related trends, significant clinical changes, or abnormalities in the morphology of the 12 lead ECG | Creatinine clearance estimated from serum creatinine ([2]; Parts A and B): no clinically important changes | Supine and standing blood pressure, pulse rate, oral body temperature ([2]; Parts A and B): no treatment or dose related trends | Severe or serious adverse events ([2]; all 54 subjects, all dose levels): no severe or serious adverse events | QTc interval (Bazett's and Friedericia's corrected) ([2]; each dose level, male and female subjects): no evidence of prolongation of QTc interval | CNS symptoms (hallucinations or dysphoria) ([2]; even at the highest dose levels): no signs of the more typical CNS symptoms | Volume of urine excreted compared to placebo ([2]; first 4 hours after start of infusion, each dose level, male and female, Parts A and B): increase | Clinical laboratory evaluations (serum biochemistry, hematology, urinalysis) ([2]; human, in vivo): no treatment related trends or significant clinical findings | Physical examination ([2]; human, in vivo): no treatment related findings
